Drawing on ChEMBL document CHEMBL3822398, “Design, synthesis and in vitro biological evaluation of short-chain C12-sphinganine and its 1,2,3-triazole analogs as potential antimicrobial and anti-biofilm agents” (Eur J Med Chem, 2016), this text covers MIC and MBC for two molecules.

What all share (assay type): functional
Assay [1] relates to Micrococcus luteus. In words: Antibacterial activity against Micrococcus luteus MTCC 2470 incubated for 24 hrs at 37 degC by well diffusion method. The following applies: MTCC 2470, 24 h.
Assay [2] deals with Raoultella planticola. In words: Antibacterial activity against Klebsiella planticola MTCC 530 incubated for 24 hrs at 37 degC by well diffusion method. The following applies: MTCC 530, 24 h.
The subject of assay [3] is Staphylococcus aureus. In words: Bactericidal activity against Staphylococcus aureus MLS16 MTCC 2940 incubated for 24 hrs. The following applies: MLS16 MTCC 2940, 24 h.
Assay [4] concerns Staphylococcus aureus. As to the kind of experiment: Bactericidal activity against Staphylococcus aureus MTCC 96 incubated for 24 hrs. Conditions: MTCC 96, 24 h.
Assay [5] has as its system Raoultella planticola. In words: Bactericidal activity against Klebsiella planticola MTCC 530 incubated for 24 hrs. Conditions: MTCC 530, 24 h.
Assay [6] relates to Bacillus subtilis. In words: Bactericidal activity against Bacillus subtilis MTCC 121 incubated for 24 hrs. The following applies: MTCC 121, 24 h.
Assay [7] relates to Staphylococcus aureus. As to the kind of experiment: Antibacterial activity against Staphylococcus aureus MTCC 96 incubated for 24 hrs at 37 degC by well diffusion method. Conditions: MTCC 96, 24 h.
Assay [8] relates to Escherichia coli. In words: Antibacterial activity against Escherichia coli MTCC 739 incubated for 24 hrs at 37 degC by well diffusion method. Conditions: MTCC 739, 24 h.
In assay [9] the test system is Staphylococcus aureus. In words: Antibacterial activity against Staphylococcus aureus MLS16 MTCC 2940 incubated for 24 hrs at 37 degC by well diffusion method. The following applies: MLS16 MTCC 2940, 24 h.
The subject of assay [10] is Escherichia coli. In words: Bactericidal activity against Escherichia coli MTCC 739 incubated for 24 hrs. The following applies: MTCC 739, 24 h.
The test system of assay [11] is Pseudomonas aeruginosa. In words: Antibacterial activity against Pseudomonas aeruginosa MTCC 2453 incubated for 24 hrs at 37 degC by well diffusion method. The following applies: MTCC 2453, 24 h.
The subject of assay [12] is Bacillus subtilis. As to the kind of experiment: Antibacterial activity against Bacillus subtilis MTCC 121 incubated for 24 hrs at 37 degC by well diffusion method. The following applies: MTCC 121, 24 h.
Assay [13] relates to Micrococcus luteus. As to the kind of experiment: Bactericidal activity against Micrococcus luteus MTCC 2470 incubated for 24 hrs. The following applies: MTCC 2470, 24 h.

≈ marks a conversion by molar mass, not a printed value.

On to `O=C(O)c1cn(C2CC2)c2cc(N3CCNCC3)c(F)cc2c1=O` [CIPROFLOXACIN], for which the MIC in assay [1], in assay [2], in assay [7], in assay [8], in assay [9] and in assay [11] was 0.9 µg/mL (≈ 2.72 µM) each time. For the same molecule, the MIC in assay [12] was determined as 0.9 µg/mL (≈ 2.72 µM). Besides, the MBC in [3] came out at 1.9 µg/mL (≈ 5.73 µM); in assay [4], 0.9 µg/mL (≈ 2.72 µM); in [5], 0.9 µg/mL (≈ 2.72 µM); in assay [6], 1.9 µg/mL (≈ 5.73 µM); in assay [10] it was 1.9 µg/mL (≈ 5.73 µM); in [13] it was 0.9 µg/mL (≈ 2.72 µM).

On to `CCCCCCCCC[C@@H](O)[C@H](CO)n1cc(CO)nn1`, for which the MIC in [1] was 7.8 µg/mL (≈ 26.1 µM); in assay [2] it was above 250 µg/mL; in assay [7] it was above 250 µg/mL; in assay [8], above 250 µg/mL; in [9], above 250 µg/mL; in [11], above 250 µg/mL. The MIC in [12] was found to be 31.2 µg/mL (≈ 104 µM). For the same molecule, the MBC is above 250 µg/mL in [3]; above 250 µg/mL in assay [4]; above 250 µg/mL in [5]; 31.2 µg/mL (≈ 104 µM) in assay [6]; above 250 µg/mL in [10]; 15.6 µg/mL (≈ 52.1 µM) in assay [13].
